# Test results: patent publication US20170209417A1, “POLYCOMPLEX GEL FOR TREATING DISEASES OF INTESTINAL/DIGESTIVE TRACT” (priority 2014, published 2017)
# Experiments:
# [1] = test system: allergic agglutinating autoantibodies; conditions: in vivo, iv
# rabbits = conditions: rabbit, in vivo
# Protocol: Besides, it is necessary to point out that the claimed polycomplex gel is characterized by the absence of allergenic properties. Considering the fact that nowadays, an obligatory stage of a new medicine study is the evaluation of the allergenicity thereof, the claimed polycomplex gel has passed a verification on the basis of the Arthus-Sakharov test. For this purpose, six rabbits of both sexes weighting from 2.0 to 2.5 kg were injected with thymogen under sterile conditions subcutaneously on one side of the back with the dose of 10 mg/kg in 1.0 ml of sodium chloride isotonic solution and 1 ml of hors serum subcutaneously into the back on the other side. The rabbits of the control group were injected, instead of thymogen, with 1 ml of sodium chloride isotonic solution. The injections of thymogen and of horse serum were repeated for 6 times with a 5-6 days' interval.
substance,measurement,setting,value
thymogen,Titer growth of allergic agglutinating autoantibodies,[1],not accompanied by any titer growth
same,"Allergenicity (conclusion, standard methods)",rabbits,not allergenic
